Assay results taken from ChEMBL document CHEMBL1201862, “PubChem BioAssay data set” (2004).
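Five compound concentrations were applied to cells in 96-well plates for 48 hours; endpoints were derived by simple linear interpolation of the resulting dose-response curve. GI50 = concentration required for 50% inhibition of growth.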 Activity calls are given as the source filed them. No stated cut-off is given here; in the data, active = GI50 up to about 1.1 µM and inactive = higher.

Key:
Experiment in all cases: DTP human tumour cell line panel, 48 h
[1] = tested on: TK-10
[2] = tested on: DU-145
[3] = tested on: PC-3
[4] = tested on: COLO 205
[5] = tested on: SK-MEL-5
[6] = tested on: HCT-116
[7] = tested on: HT-29
[8] = tested on: SK-OV-3
[9] = tested on: UACC-62
[10] = tested on: EKVX
[11] = tested on: HCT-15
[12] = tested on: NCI-H460
[13] = tested on: RPMI-8226
[14] = tested on: Hs-578T
[15] = tested on: SN12C
[16] = tested on: UO-31
[17] = tested on: K562
[18] = tested on: MOLT-4

Compound: COC(=O)/C=C\c1ccc2c(c1)CC1(C2)Cc2ccc(/C=C/C(=O)OC)cc2C1 (stereo not given)
- GI50 [1]: > 31.6 µM (inactive)
- GI50 [2]: > 100 µM (inactive)
- GI50 [3]: > 31.6 µM (inactive)
- GI50 [4]: > 31.6 µM (inactive)
- GI50 [5]: > 31.6 µM (inactive)
- GI50 [6]: 24.4 µM (inactive)
- GI50 [7]: > 31.6 µM (inactive)
- GI50 [8]: > 31.6 µM (inactive)
- GI50 [9]: > 31.6 µM (inactive)
- GI50 [10]: > 31.6 µM (inactive)
- GI50 [11]: > 31.6 µM
- GI50 [12]: > 100 µM (inactive)
- GI50 [13]: > 31.6 µM (inactive)
- GI50 [14]: > 31.6 µM (inactive)
- GI50 [15]: > 31.6 µM (inactive)
- GI50 [16]: > 31.6 µM (inactive)
- GI50 [17]: > 31.6 µM (inactive)
- GI50 [18]: > 31.6 µM (inactive)

Compound: Cc1nc2ccccc2n1Cc1ccc(NC(=S)Nc2ccccc2)cc1
- GI50 [1]: > 100 µM (inactive)
- GI50 [2]: 73.8 µM (inactive)
- GI50 [3]: 75.7 µM (inactive)
- GI50 [4]: 34.8 µM (inactive)
- GI50 [5]: 12.3 µM (inactive)
- GI50 [6]: 31.6 µM (inactive)
- GI50 [7]: 32.8 µM (inactive)
- GI50 [8]: > 100 µM (inactive)
- GI50 [9]: 58.7 µM (inactive)
- GI50 [10]: 21.1 µM (inactive)
- GI50 [11]: 72.8 µM
- GI50 [12]: 92.3 µM (inactive)
- GI50 [13]: 50 µM (inactive)
- GI50 [14]: > 100 µM (inactive)
- GI50 [15]: 76.4 µM (inactive)
- GI50 [16]: > 100 µM (inactive)
- GI50 [17]: 33.4 µM (inactive)
- GI50 [18]: 23.3 µM (inactive)

Compound: COC(=O)C(Cc1c[nH]c2ccccc12)NC1=Nc2ccncc2S(=O)(=O)N1c1ccccc1 (stereo not given)
- GI50 [1]: > 100 µM (inactive)
- GI50 [2]: 41.4 µM (inactive)
- GI50 [3]: 29.1 µM (inactive)
- GI50 [4]: 17.6 µM (inactive)
- GI50 [5]: 16 µM (inactive)
- GI50 [6]: 27.1 µM (inactive)
- GI50 [7]: 18.9 µM (inactive)
- GI50 [8]: 56.5 µM (inactive)
- GI50 [9]: 3.15 µM (inactive)
- GI50 [10]: > 100 µM (inactive)
- GI50 [11]: 77.6 µM
- GI50 [12]: 98.2 µM (inactive)
- GI50 [13]: 13.1 µM (inactive)
- GI50 [14]: 56.1 µM (inactive)
- GI50 [15]: 78.3 µM (inactive)
- GI50 [16]: 32.6 µM (inactive)
- GI50 [17]: 20.5 µM (inactive)
- GI50 [18]: 15.3 µM (inactive)

Compound: COC1=CC(=O)c2c(O)ccc(O)c2C1=O
- GI50 [1]: 14.7 µM (inactive)
- GI50 [2]: 1.78 µM (inactive)
- GI50 [3]: 18.5 µM (inactive)
- GI50 [4]: 1.5 µM (inactive)
- GI50 [5]: 0.851 µM (active)
- GI50 [6]: 4.6 µM (inactive)
- GI50 [7]: 1.72 µM (inactive)
- GI50 [8]: 18.6 µM (inactive)
- GI50 [9]: 1.92 µM (inactive)
- GI50 [10]: 20.2 µM (inactive)
- GI50 [11]: 2.4 µM
- GI50 [12]: 5.04 µM (inactive)
- GI50 [13]: 9.2 µM (inactive)
- GI50 [14]: 6.4 µM (inactive)
- GI50 [15]: 2.65 µM (inactive)
- GI50 [16]: 17.3 µM (inactive)
- GI50 [17]: 6.68 µM (inactive)
- GI50 [18]: 13.8 µM (inactive)

Compound: COC(=O)C1=C(OC(=O)/C(=C/c2ccccc2)c2ccc(Cl)cc2Cl)C(C(=O)OC)[C@@]2(O)[C@@H](C(=O)OC)[C@H](C)C[C@@H]1[C@@H]2C(=O)OC (stereo not given in full)
- GI50 [1]: > 100 µM (inactive)
- GI50 [2]: > 100 µM (inactive)
- GI50 [3]: > 100 µM (inactive)
- GI50 [4]: > 100 µM (inactive)
- GI50 [5]: 82.8 µM (inactive)
- GI50 [6]: > 100 µM (inactive)
- GI50 [7]: > 100 µM (inactive)
- GI50 [8]: > 100 µM (inactive)
- GI50 [9]: > 100 µM (inactive)
- GI50 [10]: > 100 µM (inactive)
- GI50 [11]: > 100 µM
- GI50 [12]: > 100 µM (inactive)
- GI50 [13]: > 100 µM (inactive)
- GI50 [14]: > 100 µM (inactive)
- GI50 [15]: > 100 µM (inactive)
- GI50 [16]: > 100 µM (inactive)
- GI50 [17]: > 100 µM (inactive)
- GI50 [18]: > 100 µM (inactive)
